Data reported in patent US9593305B2, “Differentiation of pluripotent stem cells” (Janssen Biotech, Inc., priority 2008, dated 2017).

B1: GDF-5: member of the GDF family of proteins (DePuy Orthopaedics) (protein, UniProt P43026 382-501, looked up)
Growth/differentiation factor …: APLATRQGKRPSKNLKARCSRKALHVNFKDMGWDDWIIAPLEYEAFHCEGLCEFPLRSHLEPTNHAVIQTLMNSMDPESTPPTCCVPTRLSPISILFIDSANNVVYKQYEDMVVESCGCR
B2: GDF-3: member of the GDF family of proteins (PeproTech) (protein, UniProt Q9NR23 251-364, looked up)
Growth/differentiation factor …: AAIPVPKLSCKNLCHRHQLFINFRDLGWHKWIIAPKGFMANYCHGECPFSLTISLNSSNYAFMQALMHAVDPEIPQAVCIPTKLSPISMLYQDNNDNVILRHYEDMVVDECGCG
B3: Wnt3a: Wnt3a recombinant protein (R&D Systems) (protein, UniProt P56704 19-352, looked up)
Protein Wnt-3a: SYPIWWSLAVGPQYSSLGSQPILCASIPGLVPKQLRFCRNYVEIMPSVAEGIKIGIQECQHQFRGRRWNCTTVHDSLAIFGPVLDKATRESAFVHAIASAGVAFAVTRSCAEGTAAICGCSSRHQGSPGKGWKWGGCSEDIEFGGMVSREFADARENRPDARSAMNRHNNEAGRQAIASHMHLKCKCHGLSGSCEVKTCWWSQPDFRAIGDFLKDKYDSASEMVVEKHRESRGWVETLRPRYTYFKVPTERDLVYYEASPNFCEPNPETGSFGTRDRTCNVSSHGIDGCDLLCCGRGHNARAERRREKCRCVFHWCCYVSCQECTRVYDVHTCK

What was measured:
[1] = test system: H1 human embryonic stem cells; test: Screen of CDK, GSK3 and TRK inhibitors with or without GDF-8, SOX17 and cell number (Example 20, Table 17); format: cell-based; conditions: Plate 1; for Cell Number, % of positive control / Sox17 Expression, % of positive control: positive control = Activin A/Wnt3a
Description: Briefly, clusters of H1 human embryonic stem cells were grown on reduced growth factor Matrigel™ (Invitrogen; Cat #356231) coated tissue culture plastic. Cells were passaged using collagenase (Invitrogen; Cat #17104-019) treatment and gentle scraping, washed to remove residual enzyme, and plated with even dispersal at a ratio of 1:1 (surface area) on reduced growth factor […]™ (BD Biosciences; Cat #356231)-coated 96-well black plates (Packard ViewPlates; PerkinElmer; Cat #6005182) using volumes of 100 μl/well. Cells were allowed to attach and then recover log phase growth over a 1 to 3 day time period, feeding daily with MEF conditioned medium supplemented with 8 ng/ml bFGF (R&D Systems; Cat #233-FB). Plates were maintained at 37° C., 5% CO2 in a humidified box throughout the duration of assay.
Screening was conducted using the compounds described in Table 16. […] Compounds were made available as 5 mM stocks in 96-well plate format, solubilized in 100% DMSO (Sigma; Cat #D2650) and stored at −80° C. The library compounds were further diluted to an intermediate concentration of 0.2 mM in 50 mM HEPES (Invitrogen; Cat #15630-080), 20% DMSO and stored at 4° C. Test conditions were performed in triplicate, feeding on alternating days over a four-day assay period. Assay was initiated by aspirating culture medium from each well followed by three washes in PBS (Invitrogen; Cat #14190) to remove residual growth factors. On the first day of assay, test volumes of 200 μl per well were added to each well using DMEM:F12 base medium (Invitrogen; Cat #11330-032) supplemented with 0.5% FCS (HyClone; Cat #SH30070.03) and 100 ng/ml GDF-8 (R&D Systems, Cat #788-G8) plus 2.5 μM compound. A parallel set of test samples were treated in an identical manner but omitting GDF-8 from the medium. On the third day of assay, test volumes of 100 μper well were added to each well using DMEM:F12 base medium supplemented with 2% FCS plus 100 ng/ml GDF-8 (R&D Systems, Cat #788-G8). […] Positive control samples contained the same base medium supplemented with FCS and 100 ng/ml recombinant human activin A (PeproTech; Cat #120-14) throughout the four day assay along with Wnt3a (20 ng/ml) addition on days 1 and 2. Negative control samples contained DMEM:F12 base medium supplemented with FCS.
At the conclusion of four-days of culture, assay plates were washed twice with PBS (Invitrogen; Cat #14190), fixed with 4% paraformaldehyde (Alexis Biochemical; Cat #ALX-350-011) at room temperature for 20 minutes, then washed three times with PBS and permeabilized with 0.5% Triton X-100 (Sigma; Cat #T8760-2) for 20 minutes at room temperature. Cells were washed again three times with PBS and blocked with 4% chicken serum (Invitrogen; Cat #16110082) in PBS for 30 minutes at room temperature. Primary antibody (goat anti-human SOX17; R&D Systems; Cat #AF1924) was diluted 1:100 in 4% chicken serum and added to each well for one hour at room temperature. Alexa Fluor 488 conjugated secondary antibody (chicken anti-goat IgG; Molecular Probes; Cat #AZ1467) was diluted 1:200 in PBS and added to each sample well after washing three times with PBS. To counterstain nuclei, 4 μg/ml Hoechst 33342 (Invitrogen; Cat #H3570) was added for ten minutes at room temperature. Plates were washed once with PBS and left in 100 μl/well PBS for imaging.
Imaging was performed using an IN Cell Analyzer 1000 (GE Healthcare) utilizing the 51008bs dichroic for cells stained with Hoechst 33342 and Alexa Fluor 488. Exposure times were optimized from positive control wells and from untreated negative control wells stained with secondary antibody alone. Images from 15 fields per well were acquired to compensate for any cell loss during the bioassay and subsequent staining procedures. Measurements for total cell number and total SOX17 intensity were obtained from each well using IN Cell Developer Toolbox 1.7 (GE Healthcare) software. […]

[2] = test system: CDK, GSK3, and/or TRK signaling pathways; test: Primary selectivity of the proprietary small molecules (Table 16); conditions: as listed in Table 17
Description: A subset of 14 proprietary small molecules, known to have specificity for the CDK, GSK3, and/or TRK signaling pathways were evaluated for their potential to differentiate human embryonic stem cells to cells expressing markers characteristic of the definitive endoderm lineage.

[3] = test system: H1 human embryonic stem cells; test: Definitive endoderm formation with GDF family members, SOX17 and cell number (Example 13); format: cell-based; conditions: for SOX17 expression, GDF growth factor substituting for activin A: 100 ng/ml GDF, alone or with Wnt3a, Compound 34 or Compound 56, four days
Description: Stock cultures of human embryonic stem cells (H1 human embryonic stem cell line) were maintained in an undifferentiated, pluripotent state on reduced growth factor […]™ (BD Biosciences; Cat #356231)-coated dishes in MEF conditioned medium with passage on average every four days. Passage was performed by exposing cell cultures to a solution of 1 mg/ml dispase (Invitrogen; Cat #17105-041) for 5 to 7 minutes at 37° C. followed by rinsing the monolayer with MEF conditioned culture medium and gentle scraping to recover cell clusters. Clusters were centrifuged at low speed to collect a cell pellet and remove residual dispase. Cell clusters were split at a 1:3 or 1:4 ratio for routine maintenance culture or a 1:1 ratio for immediate assay. All human ES cell lines were maintained at passage numbers less than 50 and routinely evaluated for normal karyotype and absence of mycoplasma.
Cell clusters were evenly resuspended in MEF conditioned medium supplemented with 8 ng/ml bFGF and seeded onto reduced growth factor […]™-coated 96-well Packard VIEWPLATES (PerkinElmer; Cat #6005182) in volumes of 0.1 ml/well. Daily feeding was conducted by aspirating spent culture medium from each well and replacing with an equal volume of fresh medium. Plates were maintained at 37° C., 5% CO2 throughout the duration of assay.
The assay was initiated by aspirating the culture medium from each well and adding back aliquots (100 μl) of test medium. Test conditions were performed in triplicate over a total four-day assay period, feeding on day 1 and day 3 by aspirating and replacing the medium from each well with fresh test medium. Various members of the GDF family of proteins were obtained for testing as follows: GDF-3 (PeproTech; Cat #120-22); GDF-5 (DePuy Orthopaedics, Inc., a Johnson & Johnson company); GDF-8 (R&D Systems; Cat #788-G8); GDF-10 (R&D Systems; Cat #1543-BP); GDF11 (PeproTech; Cat #120-11); GDF-15 (R&D Systems; Cat #957-GD). On the first day of assay, all wells received an aliquot (80 μl) of basal medium DMEM:F12 medium (Invitrogen; Cat #11330-032) supplemented with 0.5% fetal bovine serum (Hyclone; Cat #SH30070.03). A series of five different control or experimental test samples was created to evaluate activin A or various GDFs in combination with Wnt3a or Compound 34 or Compound 56. These test samples were added in 20 μl aliquots (5× concentrated) to appropriately matched assay wells to yield a final assay volume of 100 μl in each well at the final assay conditions indicated. In the first set of control samples, the following conditions were tested: 1) no additive (i.e. no supplementary growth factor or small molecule); 2) 100 ng/ml activin A (PeproTech; Cat #120-14) in combination with 20 ng/ml Wnt3a (R&D Systems; Cat #1324-WN/CF); 3) 20 ng/ml Wnt3a alone; 4) Compound 34 alone (2.5 μM) without any growth factor or small molecule; 5) Compound 56 alone (2.5 μM) without any growth factor or small molecule. In the second set of test samples, the following conditions were tested in combination with 100 ng/ml GDF3: 1) no additive (i.e. GDF-3 alone); 2) 20 ng/ml Wnt3a; 3) 20 ng/ml Wnt3a with Compound 34 (2.5 μM); 4) Compound 34 (2.5 μM); 5) Compound 56 (2.5 μM); and 6) 20 ng/ml Wnt3a with Compound 56 (2.5 μM). In the third set of test samples, each of the six conditions was combined with 100 ng/ml GDF-5. In the fourth set of test samples, each of the six conditions was combined with 100 ng/ml GDF-8. In the fifth set of test samples, each of the six conditions was combined with 100 ng/ml GDF-10. In the sixth set of test samples, each of the six conditions was combined with 100 ng/ml GDF-11. In the seventh set of test samples, each of the six conditions was combined with 100 ng/ml GDF-15. On the third day of assay, all wells for all test samples, received 100 ng/ml Activin A or 100 ng/ml respective GDF growth factor, without Wnt3a or Compound 34 or Compound 56, diluted into DMEM:F12 medium supplemented with 2% FBS. […]

[4] = compound in combination with GDF8

Molecule | Cell Number, Average Total Cell Number ([1]; compound alone, No GDF8) | Sox17 Expression, Average Total Intensity ([1]; compound alone, No GDF8) | Cell Number, % of positive control ([1]; compound alone, No GDF8) | Sox17 Expression, % of positive control ([1]; compound alone, No GDF8) | Cell Number, Average Total Cell Number [1, 4] | Sox17 Expression, Average Total Intensity [1, 4] | Cell Number, % of positive control [1, 4] | Sox17 Expression, % of positive control [1, 4] | Compound Selectivity ([2]; GDF8 treatment) | Compound Selectivity ([2]; No GDF8 treatment) | Compound Selectivity [2] | SOX17 expression, GDF growth factor substituting for activin A [3] | SOX17 expression, reagent alone ([3]; 20 ng/ml Wnt3a or 2.5 μM compound alone, four days)
COCCCNCc1ccc(Nc2nccc(-c3c[nH]c4ncccc34)n2)c(OC)c1 [Compound 12, N-(2-Methoxy-4-{[(3-methoxypropyl)amino]methyl}phenyl)-4-(1H-pyrrolo[2,3-b]pyridin-3-yl)pyrimidin-2-amine] | 13124 | −2.3E+05 | 90.7 % of positive control | −0.1 % of positive control | 31 | −1.3E+06 | 0.2 % of positive control | −0.6 % of positive control | Selective for CDK | Selective for GSK | – | – | –
COc1ccc2cc1OCCCC(=O)N(C)CC1CN(Cc3c[nH]c4ncnc(c34)N2)C1 [Compound 45, 10-Methoxy-17-methyl-2,14,15,17,18,19,20,22-octahydro-6H-1-19.21 methano-7,11-(metheno)-12-oxa-2,3,5,6,17,21-hexaazacycloicosa[1,2,3-cd]inden-16(13H)-one] | 8857 | −4.5E+05 | 61.2 % of positive control | −0.2 % of positive control | 9540 | 1.1E+08 | 65.9 % of positive control | 47.9 % of positive control | – | – | Selective for Trk | – | –
O=C1NCc2cccc(c2)-c2ccnc(n2)Nc2ccc(C(=O)N3CCOCC3)c(c2)CN2CCC[C@@H]12 [Compound 44, (18S)-11-(Morpholin-4-ylcarbonyl)-5,7,14,20,28-pentaazapentacyclo[20.3.1.1˜2,6˜0.1˜8,12˜0.0˜14,18˜]octacosa-1(26), 2(28), 3,5,8(27), 9,11,22,24-nonaen-19-one] | 14 | −1.1E+06 | 0.1 % of positive control | −0.5 % of positive control | 226 | −9.5E+05 | 1.6 % of positive control | −0.4 % of positive control | – | – | Selective for GSK | – | –
B1 | – | – | – | – | – | – | – | – | – | – | – | induced weak expression of SOX17 | –
B2 | – | – | – | – | – | – | – | – | – | – | – | induced weak expression of SOX17 | –
B3 | – | – | – | – | – | – | – | – | – | – | – | – | failed to induce SOX17 expression
